Laboratory results as given in patent US9085750B2, “Stabilized subtilisin composition” (Novozymes A/S, priority 2011, dated 2015).

How the values were obtained:
Format in all cases: biochemical
Lipase: Lipex 100L = assay: Remaining lipase activity after storage with subtilisin in the Table 3 detergent (hydrolysis of pNp-valerate); details: 2 weeks at 35° C.
Description: (§1) General experimental details: Detergents with a subtilisin (Savinase 16L) and a lipase (Lipex 100L) with or without X—B^1—NH—CHR—CHOH—SO3Na (the peptide aldehyde hydrosulfite adduct can be added separately to the detergent containing the subtilisin) are placed in closed glasses at −18° C.; 35° C. and 40° C. Residual activities of protease and lipase are measured after different times using standard analytical methods (protease by hydrolysis of N,N-dimethylcasein at 40° C., pH 8.3 and lipase by hydrolysis of pNp-valerate at 40° C., pH 7.7). Similar trials can be made with addition of subtilisin to a detergent already containing suitable amounts of the peptide aldehyde hydrosulfite adduct. Similar results can be obtained with all the mentioned peptide aldehyde bisulfite adducts.
(§2) As an example of a detergent composition with a stabilized subtilisin formulation, the composition described in Table 3 was made.
(§3) In Table 4 are shown the results measured after two weeks incubation at 35° C. in the detergent described in Table 3.

Subtilisin: Savinase = biological target: T1, Subtilisin: Savinase (Lederbergia lenta, UniProt P29600); assay: Remaining subtilisin activity after storage in the Table 3 detergent; details: 2 weeks at 35° C.
T1 construct: purchased Novozymes A/S Savinase 16L
T1 sequence (P29600 1-269): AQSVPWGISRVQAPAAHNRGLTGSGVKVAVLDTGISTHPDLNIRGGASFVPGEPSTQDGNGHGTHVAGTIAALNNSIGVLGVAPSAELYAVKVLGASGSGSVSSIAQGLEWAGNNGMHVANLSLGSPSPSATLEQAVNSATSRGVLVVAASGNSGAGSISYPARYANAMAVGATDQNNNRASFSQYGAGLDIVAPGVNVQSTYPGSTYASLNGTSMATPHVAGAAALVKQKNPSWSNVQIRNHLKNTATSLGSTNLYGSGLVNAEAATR
Description: as §1, §2, §3

Subtilisin Coronase 48L = assay: Remaining subtilisin activity after storage in the Table 5 detergent, Coronase 48L; details: 59 ppm inhibitor in detergent of Table 5
Description: as §1
(§4) As yet another example of a detergent with a stabilized subtilisin formulation, the composition described in Table 5 was made.
(§5) In Table 6 are shown the results measured after 4 weeks incubation at 37° C., and after 8 weeks incubation at 30° C., in the detergent described in Table 5.

Lipase: Lipoclean 2000L = assay: Remaining lipase activity after storage with subtilisin in the Table 5 detergent
Description: as §1, §4, §5

[1] = biological target: T2, subtilisin (Savinase 16L) (Lederbergia lenta, UniProt P29600); assay: Remaining protease activity of Savinase 16L after storage in the Table 1 detergent (hydrolysis of N,N-dimethylcasein); details: one week at 40° C.
T2 construct: purchased Novozymes A/S Savinase 16L
T2 sequence (P29600 1-269): T1 sequence (P29600 1-269)
Description: as §1
As an example of detergent composition with a stabilized subtilisin formulation, the composition described in Table 1 was made.
In Table 2 are shown the results obtained with X=Cbz-Gly; B^1=Ala; R═—CH2-p(C6H4)—OH; stability measured after one week incubation at 40° C. in the detergent described in Table 1.

[2] = test system: Subtilisin Liquanase 2.5L; assay: Remaining subtilisin activity after storage in the Table 5 detergent, Liquanase 2.5L; details: 34 ppm inhibitor in detergent of Table 5
Description: as §1, §4, §5

Structure (SMILES) | Remaining activity of Lipase (Lipase: Lipex 100L; 128 ppm inhibitor in detergent of Table 3 with Savinase) | remaining activity at 128 ppm (Subtilisin: Savinase; 128 ppm inhibitor in detergent of Table 3, read-out: Remaining activity of Subtilisin (protease)) | Remaining activity of Subtilisin, 4 weeks at 37° C. (Subtilisin Coronase 48L) | Remaining activity of Lipase, 8 weeks at 30° C. (Lipase: Lipoclean 2000L; with Coronase 48L, 59 ppm inhibitor in detergent of Table 5) | Remaining activity of Lipase, 8 weeks at 30° C. (Lipase: Lipoclean 2000L; with Liquanase 2.5L, 34 ppm inhibitor in detergent of Table 5) | Protease stability (remaining activity) ([1]; 7 ppm inhibitor in detergent of Table 1) | Protease stability (remaining activity) ([1]; 14 ppm inhibitor in detergent of Table 1) | Protease stability (remaining activity) ([1]; 18 ppm inhibitor in detergent of Table 1) | Remaining activity of Lipase (Lipase: Lipex 100L; 21 ppm inhibitor in detergent of Table 3 with Savinase) | Remaining activity of Subtilisin, 4 weeks at 37° C. [2] | Remaining activity of Subtilisin (protease) (Subtilisin: Savinase; 21 ppm inhibitor in detergent of Table 3)
O=Cc1ccc(B(O)O)cc1 [4-formylphenyl boronic acid, reference compound] | 2% | 8% |  |  |  |  |  |  |  |  | 
C[C@H](NC(=O)CNC(=O)OCc1ccccc1)C(=O)N[C@@H](Cc1ccc(O)cc1)C(O)S(=O)(=O)[O-].[Na+] (some centres unmarked) [Cbz-GA-NHCH(CH2C6H4OH)C(OH)(SO3M)-H] |  |  | 80% | 61% | 27% | 52% | 77% | 80% | 18% | 83% | 63%
